Laboratory results published in PubChem BioAssay (NCI).
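Each compound was tested at five concentrations against cells in 96-well plates for 48 hours. At the GI50, growth is halved. TGI: concentration producing complete growth inhibition.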

Key:
Assay in all cases: DTP human tumour cell line panel, 48 h
CAKI-1 renal = system: CAKI-1 renal
HCT-116 colon = system: HCT-116 colon
OVCAR-4 ovarian = system: OVCAR-4 ovarian
SK-MEL-2 melanoma = system: SK-MEL-2 melanoma
SR leukemia = system: SR leukemia
TK-10 renal = system: TK-10 renal
UACC-62 melanoma = system: UACC-62 melanoma
NCI/ADR-RES ovarian = system: NCI/ADR-RES ovarian
PC-3 prostate = system: PC-3 prostate

Row | Structure (SMILES) | TGI (CAKI-1 renal) [µM] | TGI (HCT-116 colon) [µM] | TGI (OVCAR-4 ovarian) [µM] | TGI (SK-MEL-2 melanoma) [µM] | TGI (SR leukemia) [µM] | TGI (TK-10 renal) [µM] | TGI (UACC-62 melanoma) [µM] | GI50 (CAKI-1 renal) [µM] | GI50 (HCT-116 colon) [µM] | GI50 (NCI/ADR-RES ovarian) [µM] | TGI (NCI/ADR-RES ovarian) [µM] | GI50 (OVCAR-4 ovarian) [µM] | GI50 (PC-3 prostate) [µM] | TGI (PC-3 prostate) [µM] | GI50 (SK-MEL-2 melanoma) [µM] | GI50 (TK-10 renal) [µM] | GI50 (UACC-62 melanoma) [µM]
1 | CC(=O)OC(CCC1(C)OC1COc1ccc(CCNC(=O)c2ccccc2)cc1)C(C)(C)OC(C)=O (stereo unspecified) | > 100 | 45.5 | > 100 | 60.4 | > 100 | > 100 | 31.4 |  |  |  |  |  |  |  |  |  | 
2 | C=C(Br)N(CC)CC | > 100 | > 100 | > 100 | > 100 | > 100 | > 100 | > 100 |  |  |  |  |  |  |  |  |  | 
3 | O=C(Nc1nc2ncn(CCNCc3ccccc3)c2c(=O)[nH]1)c1ccccc1 | > 100 | > 100 | > 100 | > 100 | > 100 | > 100 | > 100 |  |  |  |  |  |  |  |  |  | 
4 | O=C(CC1(O)C(=O)Nc2c(Cl)cc(Cl)cc21)c1cccc2ccccc12 (stereo unspecified) | 25.3 | 28.5 | 25.4 | 32.6 | 38.5 | 27.3 | 28.9 |  |  |  |  |  |  |  |  |  | 
5 | COC1OC(COCc2ccc(Cl)cc2)C(OCc2ccc(Cl)cc2)C1N=[N+]=[N-] (stereo unspecified) | > 100 | > 100 | > 100 | > 100 | > 100 | > 100 | 75.7 |  |  |  |  |  |  |  |  |  | 
6 | O=[N+]([O-])c1cccc(-c2oc(C=Nc3ccccc3)c([N+](=O)[O-])c2-c2cccc([N+](=O)[O-])c2)c1 |  | > 100 |  | > 100 |  | > 100 | > 100 |  |  |  |  |  |  |  |  |  | 
7 | O=C1C2C3C=CC(C2C(=O)N1COP(=O)(O)O)C1C2C(=O)N(COP(=O)(O)O)C(=O)C2C31 (stereo unspecified) | > 100 | > 57.6 | > 100 | > 100 | 38.6 | > 100 | > 100 |  |  |  |  |  |  |  |  |  | 
8 | O=[N+]([O-])c1cccc(C2ON2C2CCCCC2)c1 (stereo unspecified) | 58.7 | 26.3 | 38.3 | 62.8 | 7.81 | 77 | 48 |  |  |  |  |  |  |  |  |  | 
9 | CCOC(=O)C1=C(C)N(c2ccc(C)cc2)C2=C(C(=O)N(c3ccccc3)C2c2ccccc2)C1c1ccccc1 (stereo unspecified) |  | > 25 | > 25 | > 25 | > 25 | > 25 | > 25 |  |  |  |  |  |  |  |  |  | 
10 | COCCCNC(=O)CC(=O)NCCCOC |  | > 100 | > 100 | > 100 | > 100 | > 100 | > 100 |  |  |  |  |  |  |  |  |  | 
11 | CN(C)CCNC(=O)c1cccc2c1nc(-c1ccccc1)c1ccccc12 | 18.4 | 13 | 17.7 | 23.6 |  | 14.4 | 24.4 |  |  |  |  |  |  |  |  |  | 
12 | C[C@]1(CO)CCC[C@@]2(C)C1CC[C@H]1CC3C[C@]12CC[C@]3(C)O (stereo partly specified) | > 100 | > 100 | > 100 |  | > 100 | > 100 | > 100 |  |  |  |  |  |  |  |  |  | 
13 | O=CC[C@H]1CCc2ccccc2C12CCC(=O)CC2 | > 100 | > 100 | > 100 | > 100 |  |  | > 100 |  |  |  |  |  |  |  |  |  | 
14 | CN1c2ccccc2C(C)(C)C12C=Cc1cc(O)ccc1O2 (stereo unspecified) | 12.4 | 11.8 | 17.6 | 11.5 |  | 9.63 | 11.5 | 3.37 | 2.8 | 1.96 | 7.14 | 4.73 | 3.6 | 12.6 | 3.05 | 2.94 | 2.56
15 | O=C(O)/C(=C/C=C/c1ccccc1)c1csc(-c2nc(/C(=C\C=C\c3ccccc3)C(=O)O)cs2)n1 |  | 40.8 |  | 43.6 |  | > 100 | 98.1 |  |  |  |  |  |  |  |  |  | 
16 | O=C(CCC(=O)C(C(=O)c1ccccc1)c1ccccc1)Nc1cccc(C(F)(F)F)c1 (stereo unspecified) | > 100 | > 100 | > 100 | > 100 |  | > 100 | > 100 |  |  |  |  |  |  |  |  |  | 
17 | COc1cc2c3c(c1OC)-c1c(ccc4c1OCO4)CC3(C#N)N(C(=O)c1ccccc1)CC2 (stereo unspecified) | > 100 | > 100 | 59 |  | > 100 | > 100 | > 100 |  |  |  |  |  |  |  |  |  | 
18 | Cc1ccc(S(=O)(=O)OCC23CCC(CC2)C2CC23)cc1 (stereo unspecified) | > 100 | > 100 | > 100 |  | > 100 | > 100 | > 100 |  |  |  |  |  |  |  |  |  | 
19 | CCC(=O)c1c(NOC2OC(COC(C)=O)C(OC(C)=O)C(OC(C)=O)C2OC(C)=O)nc(OC)n(C)c1=O (stereo unspecified) |  | > 100 | > 100 | > 100 | > 100 | > 100 | > 100 |  |  |  |  |  |  |  |  |  | 
20 | CCc1cccc(C(C)C)c1N1C(=O)C(=O)C(c2nc3ccccc3s2)C(=O)C1=O | > 50 | > 50 | > 50 | > 50 |  | > 50 | > 50 |  |  |  |  |  |  |  |  |  | 
21 | CC1(C)Cc2cc(C(=O)O)c3c(c2C1=O)COCC3 | > 100 | > 100 | > 100 | > 100 | > 100 |  | > 100 |  |  |  |  |  |  |  |  |  | 
22 | C1=CC=C2NCCCNC3=CC=CC=CC3=NCCCN=C2C=C1 |  | > 100 | > 100 | > 100 |  | > 100 | > 100 |  |  |  |  |  |  |  |  |  | 
23 | COc1ccc(/C(C#N)=C/c2ccc(OC)c(OC)c2)cc1 | > 100 | > 100 | > 100 | > 100 |  | > 100 | > 100 |  |  |  | > 100 |  |  | > 100 |  |  | 
